Results on two molecules are retold here after publication PMC12409821, “Synthesis and Characterization of Co(II), Cu(II), and Ni(II) Complexes of 2,2′‐Bipyridine‐4,4′‐Dicarboxamide Ligands: Antibacterial Evaluation Against Resistant Bacteria and Enzyme Inhibition” (ChemistryOpen, 2025).

Assay [1] has as its target acetylcholinesterase (AChE) (Homo sapiens, UniProt P22303). The assay can be described thus: biochemical. The settings on record: at least five concentrations. As for the experimental part: (§1) In cholinesterase activity measurements, the method reported by Karagecili and coworkers was used with minor modifications.^[ [23] ^] Here, acetylchoiniodate was used as a substrate for both enzymes. Lipase enzyme activity measurement was performed according to the method reported by Bulut.^[ [24] ^] In inhibition studies, measurements were made at at least five different concentrations of the molecules synthesized. %activity values were calculated by accepting enzyme activity measurements without inhibitor as 100%. Then, molecule concentrations were plotted against Activity% values.

Assay [2] addresses butyrylcholinesterase (BChE) (Homo sapiens, UniProt P06276). The assay can be described thus: biochemical. The settings on record: at least five concentrations. On the procedure:
as §1

For assay [3], the target named is T1, pancreatic lipase (Homo sapiens, UniProt P16233).
T1 sequence (P16233 17-465): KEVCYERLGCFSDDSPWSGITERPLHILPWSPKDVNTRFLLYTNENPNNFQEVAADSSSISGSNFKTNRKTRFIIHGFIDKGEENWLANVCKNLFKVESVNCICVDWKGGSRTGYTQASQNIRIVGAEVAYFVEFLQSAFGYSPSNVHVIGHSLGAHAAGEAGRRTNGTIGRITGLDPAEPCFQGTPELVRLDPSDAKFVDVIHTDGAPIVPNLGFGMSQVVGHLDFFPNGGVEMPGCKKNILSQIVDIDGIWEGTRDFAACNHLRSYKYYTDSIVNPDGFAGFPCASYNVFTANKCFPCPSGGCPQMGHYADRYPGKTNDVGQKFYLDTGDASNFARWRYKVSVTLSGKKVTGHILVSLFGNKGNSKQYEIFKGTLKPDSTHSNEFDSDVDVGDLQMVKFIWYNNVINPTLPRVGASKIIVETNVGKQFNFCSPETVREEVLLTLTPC
Description: In vitro lipase inhibition assay. The format is biochemical. As for the experimental part:
as §1

Sequence of acetylcholinesterase (AChE) (P22303 32-614, species assumed): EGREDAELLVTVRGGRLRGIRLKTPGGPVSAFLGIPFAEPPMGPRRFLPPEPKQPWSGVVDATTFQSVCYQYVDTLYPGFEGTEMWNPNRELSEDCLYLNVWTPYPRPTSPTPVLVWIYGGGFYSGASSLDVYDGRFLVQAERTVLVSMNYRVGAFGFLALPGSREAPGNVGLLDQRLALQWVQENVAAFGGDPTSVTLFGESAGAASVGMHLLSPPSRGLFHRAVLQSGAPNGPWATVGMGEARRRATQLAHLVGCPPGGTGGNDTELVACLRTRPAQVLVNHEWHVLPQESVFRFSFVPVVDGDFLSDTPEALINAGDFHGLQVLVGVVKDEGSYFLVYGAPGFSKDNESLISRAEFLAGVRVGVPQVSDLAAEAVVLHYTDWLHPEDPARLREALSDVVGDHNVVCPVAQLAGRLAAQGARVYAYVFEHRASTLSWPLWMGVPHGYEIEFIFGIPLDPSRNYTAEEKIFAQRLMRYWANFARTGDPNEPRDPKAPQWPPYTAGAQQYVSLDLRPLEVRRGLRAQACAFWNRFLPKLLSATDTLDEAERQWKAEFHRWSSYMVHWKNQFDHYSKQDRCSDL
Sequence of butyrylcholinesterase (BChE) (P06276 29-602, species assumed): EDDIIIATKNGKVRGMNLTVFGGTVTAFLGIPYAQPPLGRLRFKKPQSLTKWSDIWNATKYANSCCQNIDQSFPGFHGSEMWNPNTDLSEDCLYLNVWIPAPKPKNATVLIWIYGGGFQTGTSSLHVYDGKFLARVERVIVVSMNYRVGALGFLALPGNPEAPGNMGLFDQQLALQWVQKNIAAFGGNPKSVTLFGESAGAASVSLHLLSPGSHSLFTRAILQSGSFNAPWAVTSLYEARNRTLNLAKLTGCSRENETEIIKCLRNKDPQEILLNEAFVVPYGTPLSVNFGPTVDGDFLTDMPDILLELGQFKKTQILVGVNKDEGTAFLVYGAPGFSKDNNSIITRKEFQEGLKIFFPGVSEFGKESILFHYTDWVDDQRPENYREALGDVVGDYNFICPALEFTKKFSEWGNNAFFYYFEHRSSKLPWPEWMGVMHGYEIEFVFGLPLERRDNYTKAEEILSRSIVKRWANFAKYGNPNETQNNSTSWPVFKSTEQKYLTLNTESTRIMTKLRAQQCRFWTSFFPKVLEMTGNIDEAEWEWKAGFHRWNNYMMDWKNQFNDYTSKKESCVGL

Broadly, the IC50 is the concentration needed to halve the response being measured. In the case of `O=C(NCc1ccccn1)c1ccnc(-c2cc(C(=O)NCc3ccccn3)ccn2)c1` [L1, N4,N4′‐bis(pyridin‐2‐ylmethyl)‐[2,2′‐bipyridine]‐4,4′‐dicarboxamide], the results for the IC50 in assay [1] and in assay [2] were 173 µM and 68.1 µM, respectively. The “Effect on lipase in the concentration ranges studied” value in assay [3] (no IC50 given in Table 5) is given as “did not show a linear effect”.
For the molecule `O=C(NCC1CCCCN1)c1ccnc(-c2cc(C(=O)NCC3CCCCN3)ccn2)c1` (stereo not drawn) [L2, N4,N4′‐bis(piperidin‐2‐ylmethyl)‐[2,2′‐bipyridine]‐4,4′‐dicarboxamide], the figures for the IC50 in assay [1], in assay [2] and in assay [3] (at least five concentrations) were 10.2 µM, 8.83 µM and 24.1 µM, respectively.
